Experimental data published in US20090221436A1, “PROCESS FOR DETERMINING TARGET FUNCTION AND IDENTIFYING DRUG LEADS” (priority 2000, published 2009).

Experiments:
[1] = target: T1, P38 MAP kinase (Homo sapiens, UniProt Q16539); conditions: stated as a known property of the ligand; cited from earlier work
T1 construct: purchased Sigma

[2] = target: T1, P38 MAP kinase; experiment: HPLC based Chemical Array Assay: protein-bound compounds separated from free compounds, UV and mass spectrum of protein fraction; type: binding; conditions: for identity by mass spectrum of the compound extracted from the mixture and released from the protein: 5 uM P38 MAP kinase + 5 uM mixture of Quinine and 86002, Diol column
Protocol: (§1) Drug-like chemical compounds representing a collection of drug-like chemical scaffolds (Sigma-Aldrich, ICN, Calbiochem) were weighed and mixed to a final concentration of 20 uM each in 50 mM ammonium acetate pH 7, 10% methanol. 1 uM to 20 uM tubulin or P38 MAP kinase (Sigma) were dispensed into HPLC low volume sample cuvettes (Waters) and mixed with 0.5 uM to 20 uM compounds.
(§2) The compounds were eluted using an acetonitrile gradient past a UV detector and into a TOF mass spectrometer (Micromass LCT). […] In other mass spectrometry instruments, fragmentation can be achieved in a collision cell. The fragmentation pattern which is characteristic for each compound consists of the larger parent peak and other peaks representing fragments of the chemical compound or their isotopes. […] Alternatively, one or more characteristic isotope(s) of the parent peak representing the molecular weight of the compound was compared with the standard to identify the compound that bound the protein target. In another alternative analysis, the parent peak representing the molecular weight of the compound was itself compared with the standard to identify the compound. Sometimes, the combination of these methods was also used to identify the compound.

[3] = tested on: tubulin; experiment: as above; type: binding; conditions: 10 compound mixture 0.5 uM each, tubulin 0, 5 and 20 uM, GFF II column
Protocol: as §1, §2

T1 sequence (Q16539 whole entry): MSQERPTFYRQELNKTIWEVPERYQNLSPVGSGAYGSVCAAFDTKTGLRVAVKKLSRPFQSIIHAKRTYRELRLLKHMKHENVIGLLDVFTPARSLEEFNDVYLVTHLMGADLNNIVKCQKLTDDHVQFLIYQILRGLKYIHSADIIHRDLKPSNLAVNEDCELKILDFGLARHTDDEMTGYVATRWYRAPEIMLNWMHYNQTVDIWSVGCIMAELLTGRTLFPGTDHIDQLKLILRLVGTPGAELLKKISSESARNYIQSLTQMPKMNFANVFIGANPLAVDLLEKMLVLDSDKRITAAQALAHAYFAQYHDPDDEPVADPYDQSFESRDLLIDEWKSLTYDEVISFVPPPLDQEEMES

| mass spectrum of the collected protein fraction compared with the standard ([2]; 5 uM P38 MAP kinase + 5 uM compound alone, Diol column) | reduction of the compound's UV peak (unbound compound) with increasing P38 ([2]; 2-compound mixture 5 uM each, P38 0, 2.5, 5 and 10 uM, Diol column) | level of the compound's characteristic peaks in the mass spectrum of the protein fraction ([2]; 10 compound mixture 0.5 uM each, GFF II column) | reduction of the compound's UV peak (unbound compound) with increasing P38 ([2]; 10 compound mixture 0.5 uM each, P38 0, 3.5 and 5 uM, GFF II column) | level of the compound's characteristic peak in the mass spectrum of the protein fraction ([2]; 100 compound mixture 20 uM each, P38 2 uM, GFF II column) | Compound | affinity for the P38 MAP kinase protein target [1] | identity by mass spectrum of the compound extracted from the mixture and released from the protein [2] | reduction of the compound's UV peak (unbound compound) with increasing tubulin [3] |
| --- | --- | --- | --- | --- | --- | --- | --- | --- |
| corresponded to the 86002 standard | concentration dependant reduction | at a level far higher than other peaks | concentration dependent reduction | at a level far higher than other peaks | Fc1ccc(-c2nc3n(c2-c2ccncc2)CCS3)cc1 [SKB86002] | micromolar affinity | identified as 86002 | negligible reduction |
| – | – | – | – | – | C=C[C@H]1CN2CC[C@H]1C[C@H]2[C@H](O)c1ccnc2ccc(OC)cc12.Cl [quinine, quinine monohydrochloride] | – | not quinine | – |
